One may read the IC50 as the point on the concentration scale where inhibition reaches its midpoint.

The target of this assay is T1, human kinase Mps-1 (Homo sapiens, UniProt P33981).
T1 construct: N-terminally GST-tagged human full length recombinant Mps-1 kinase; purchased Invitrogen, Karslruhe, Germany PV4071
T1 sequence (P33981 1-857): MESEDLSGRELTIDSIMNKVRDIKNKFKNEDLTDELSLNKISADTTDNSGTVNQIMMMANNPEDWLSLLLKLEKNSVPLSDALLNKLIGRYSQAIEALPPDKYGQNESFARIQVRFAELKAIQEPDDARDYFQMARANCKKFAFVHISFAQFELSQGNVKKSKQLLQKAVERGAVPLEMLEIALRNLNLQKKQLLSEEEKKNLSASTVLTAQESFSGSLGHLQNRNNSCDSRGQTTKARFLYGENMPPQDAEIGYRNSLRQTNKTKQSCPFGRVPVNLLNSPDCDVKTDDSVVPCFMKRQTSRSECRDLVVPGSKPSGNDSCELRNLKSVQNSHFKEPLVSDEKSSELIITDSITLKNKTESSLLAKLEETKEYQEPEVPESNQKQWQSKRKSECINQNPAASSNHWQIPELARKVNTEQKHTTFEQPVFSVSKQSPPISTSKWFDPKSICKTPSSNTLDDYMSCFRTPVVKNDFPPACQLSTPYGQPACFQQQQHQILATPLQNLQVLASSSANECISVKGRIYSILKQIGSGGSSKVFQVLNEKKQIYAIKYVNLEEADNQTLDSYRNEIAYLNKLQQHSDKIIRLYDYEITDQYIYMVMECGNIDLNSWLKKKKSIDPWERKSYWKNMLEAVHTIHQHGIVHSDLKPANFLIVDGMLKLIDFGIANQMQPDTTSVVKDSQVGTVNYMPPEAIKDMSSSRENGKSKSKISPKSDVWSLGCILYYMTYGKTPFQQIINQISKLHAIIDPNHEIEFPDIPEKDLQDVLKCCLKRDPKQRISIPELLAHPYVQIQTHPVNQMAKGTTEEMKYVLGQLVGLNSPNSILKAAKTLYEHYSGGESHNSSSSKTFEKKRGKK
In words: Mps-1 Kinase Assay (TR-FRET). It counts as biochemical. Conditions: N-terminally GST-tagged human full length recombinant Mps-1; 10 μM ATP; 1 μM biotinylated peptide substrate; 60 min at 22° C.; read-out: MPS1 Inhibition, IC50 in M. A general note: Time-resolved FRET reads energy transfer from a long-lived donor to a nearby acceptor.
Regarding `N#Cc1ccccc1Nc1nc2ccc(-c3ccc(NC(=O)Cc4cccc(F)c4)cc3)cn2n1` [Example 3.5, N-(4-{2-[(2-cyanophenyl)amino][1,2,4]triazolo[1,5-a]pyridin-6-yl}phenyl)-2-(3-fluorophenyl)acetamide], the IC50 amounted to 0.0011 µM. For `COc1ccccc1Nc1nc2ccc(-c3cccc(NS(=O)(=O)C4CC4)c3)cn2n1` [Example 8.4, N-(3-{2-[(2-methoxyphenyl)amino][1,2,4]triazolo[1,5-a]pyridin-6-yl}phenyl)cyclopropanesulfonamide], the IC50 worked out at 0.29 µM. Under `N#Cc1ccccc1Nc1nc2ccc(-c3cccc(C(=O)NC4CC4)c3)cn2n1` [Example 9.5, 3-{2-[(2-cyanophenyl)amino][1,2,4]triazolo[1,5-a]pyridin-6-yl}-N-cyclopropylbenzamide] stands 0.0044 µM.

Turning to `COc1ccccc1Nc1nc2ccc(-c3cccc(NC(=O)NC4CC4)c3)cn2n1` [Example 8.9, 1-cyclopropyl-3-(3-{2-[(2-methoxyphenyl)amino][1,2,4]triazolo[1,5-a]pyridin-6-yl}phenyl)urea], the IC50 was found to be 0.084 µM. In the case of `COc1ccccc1Nc1nc2ccc(-c3ccc(NC(=O)CC4CC4)cc3)cn2n1` [Example 4.2, 2-cyclopropyl-N-(4-{2-[(2-methoxyphenyl)amino][1,2,4]triazolo[1,5-a]pyridin-6-yl}phenyl)acetamide], the IC50 was 0.027 µM.

For the molecule `O=C(Cc1cccnc1)Nc1ccc(-c2ccc3nc(Nc4ccccc4C(F)(F)F)nn3c2)cc1` [Example 5.8, 2-(pyridin-3-yl)-N-[4-(2-{[2-(trifluoromethyl)phenyl]amino}[1,2,4]triazolo[1,5-a]pyridin-6-yl)phenyl]acetamide], the IC50 stood at 0.099 µM. As for `N#Cc1ccccc1Nc1nc2ccc(-c3cccc(C(=O)NCc4ccccc4)c3)cn2n1` [Example 9.4, N-benzyl-3-{2-[(2-cyanophenyl)amino][1,2,4]triazolo[1,5-a]pyridin-6-yl}benzamide], the IC50 is 0.021 µM.

Regarding `COc1ccccc1Nc1nc2ccc(-c3cccc(NC(=O)c4ccccc4)c3)cn2n1` [Example 8.7, N-(3-{2-[(2-methoxyphenyl)amino][1,2,4]triazolo[1,5-a]pyridin-6-yl}phenyl)benzamide], the IC50 came to 0.29 µM. The same measure for `COc1ccccc1Nc1nc2ccc(-c3cccc(C(=O)NCc4ccccc4)c3)cn2n1` [Example 10.2, N-benzyl-3-{2-[(2-methoxyphenyl)amino][1,2,4]triazolo[1,5-a]pyridin-6-yl}benzamide]: 0.045 µM.

In the case of `N#Cc1ccccc1Nc1nc2ccc(-c3ccc(NC(=O)Cc4cccnc4)cc3)cn2n1` [Example 3.8, N-(4-{2-[(2-cyanophenyl)amino][1,2,4]triazolo[1,5-a]pyridin-6-yl}phenyl)-2-(pyridin-3-yl)acetamide], the IC50 amounted to 0.0035 µM.

For the origin of these results see patent US9676766B2, “Triazolopyridines” (BAYER INTELLECTUAL PROPERTY GMBH, priority 2009, dated 2017).
